Test results as given in PMC8238920, “Functional inhibition of lactate dehydrogenase suppresses pancreatic adenocarcinoma progression” (Clinical and Translational Medicine, 2021).

Molecular target: T1, lactate dehydrogenase A (LDHA) (Homo sapiens, UniProt P00338)
T1 construct: his-tag LDHA human recombinant protein (Cat. No. 71081, BPS Bioscience)
Assay: SPR (Biacore T200, LDHA immobilized on CM5 chip, berberine […])
Assay type: binding

Question: For COc1ccc2cc3[n+](cc2c1OC)CCc1cc2c(cc1-3)OCO2 [BBR, berberine], which Kd is on record?
Answer: 4.59 µM
